Data published in US11649195B2, “Smart release nitrogen-containing fertilizer granules” (RYNAN TECHNOLOGIES PTE. LTD., priority 2018, dated 2023).

Assays:
[1] = of associated acids; cited from earlier work
[2] = test system: Brassica integrifolia; test: Growing Brassica integrifolia in planting pots; assay type: in vivo; settings: day 31 after planting, 10 g fertilizer per pot
Protocol: Fertilizers comprising different functional layers were used for growing Brassica integrifolia. The experiments were done in plastic planting pots containing 5 Kg of a growth media comprising 50% coconut fibers and 50% topsoil. The N, P2O5 and K2O contents in 100 g of the growth media were 7.7 mg, 32 mg and 34 mg, respectively. Ten grams of urea were buried in the growth media at around 3 cm depth as a comparative example (Example 41). Alternatively, 10 grams of various smart N-fertilizers comprising different organic functional layer 104 were buried into the growth media at around 3 cm depth (Examples 42 and following). Then, ten seeds of Brassica integrifolia (also called English spinach) were placed in each planting pot. The planting pots were placed outdoor and wetted with 200 ml water every day.
Smart N-Fertilizers with different organic functional layer comprising tannic acid and its modifiers were used for growing Brassica integrifolia. These experiments were carried out as described above for Examples 42 to 48.
Smart N-Fertilizers with different organic functional layer were used for growing Brassica integrifolia. These experiments were carried out as described above for Examples 42 to 48, with the exception of Example 55 (comparative), in which ten grams of DAP were buried in the growth media at around 3 cm depth as a comparative example.

[3] = Examples 41, 49-54 (tannic acid layers)

## O=C(O)Cc1cccc2ccccc12 [1-Naphthalene acetoate, 1-Naphthalene Acetic Acid]
[1]
  pKa: 4.23

## O=C(O)COc1ccc(Cl)cc1 [4-Chlorophenyloxy acetoate, 4-Chlorophenoxyacetic Acid]
[1]
  pKa: 3.58

## N.N.O=P(O)(O)O [DAP, Diammonium phosphate]
[2]; Examples 55-64 (DAP core)
  Height: 7.60 cm
  Leaf length: 4.20 cm
  Leaf width: 2.40 cm
  Total yield: 15 gram
  Weight of 6 plants: 9 gram

## NC(N)=O [Urea, urea]
[2]; [3]
  Height: 4.90 cm
  Leaf length: 2.00 cm
  Leaf width: 1.00 cm
  Total yield: 5 gram
  Weight of 6 plants: 5 gram
[2]; Examples 41-48
  Height: 4.90 cm
  Leaf length: 2.00 cm
  Leaf width: 1.00 cm
  Total yield: 5 gram
  Weight of 6 plants: 5 gram
